Reference: patent US12180226B2, “Spirotricycle RIPK1 inhibitors and methods of uses thereof” (Merck Sharp & Dohme LLC, priority 2021, dated 2024)

Target: RIPK1 (recombinant GST-RIPK1 kinase domain, residues 1-327) (Homo sapiens (Human), UniProt Q13546)
Test: RIPK1-ADP-Glo Enzymatic Assay
Format: biochemical
Conditions: ADP-Glo; 25 nM GST-RIPK1, 300 μM ATP; assay lower limit ~25 nM; read-out: RIPK1 V0 Ec50
Summary of the method: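 Compounds titrated 10-pt 1:3 from 100000 nM top (1% DMSO); 30 min preinc w/ 25 nM Sf21-expressed enzyme, RT; start w/ ATP (300 μM final) + dephos-MBP (3 μM); 150 min; ADP-Glo lumi; 4-param fit → EC50.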

RIPK1 (recombinant GST-RIPK1 kinase domain, residues 1-327), sequence (Q13546 1-327): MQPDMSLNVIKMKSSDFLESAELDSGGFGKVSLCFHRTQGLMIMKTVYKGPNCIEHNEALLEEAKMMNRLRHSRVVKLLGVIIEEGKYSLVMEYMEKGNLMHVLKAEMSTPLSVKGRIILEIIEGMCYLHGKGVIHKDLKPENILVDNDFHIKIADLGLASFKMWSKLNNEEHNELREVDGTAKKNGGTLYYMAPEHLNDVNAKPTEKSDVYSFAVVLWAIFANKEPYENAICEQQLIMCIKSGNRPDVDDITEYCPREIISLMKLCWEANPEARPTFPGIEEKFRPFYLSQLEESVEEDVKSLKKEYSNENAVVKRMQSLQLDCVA

| EC50 | Compound |
| --- | --- |
| 0.0508 µM | O=C1N2[C@@H](CC[C@H]2c2ccccc2)OC12CCN(c1nc3ccncc3o1)CC2 [Example 4.158, (5′S,7a′R)-1-([1,3]oxazolo[5,4-c]pyridin-2-yl)-5′-phenyltetrahydro-3′H-spiro[piperidine-4,2′-pyrrolo[2,1-b] [1,3]oxazol]-3′-one] |
| < 0.025 µM | O=C(c1ccc(F)cc1F)N1CCC2(CC1)O[C@@H]1CC[C@@H](c3cc(F)cc(F)c3)N1C2=O [Example 5.5, (5′S,7a′R)-1-(2,4-difluoro-benzene-1-carbonyl)5′-(3,5-difluorophenyl)tetra-hydro-3′H-spiro[piperi-dine-4,2′-pyrrolo[2,1-b] [1,3]oxazol]-3′-one] |
| 0.181 µM | Cc1nc(N2CCC3(CC2)O[C@@H]2CC[C@@H](c4ccccc4)N2C3=O)ncc1-c1ncnn1C [Example 21.7, (5′S,7a′R)-1-[4-methyl-5-(1-methyl-1H-1,2,4-triazol-5-yl)pyrimidin-2-yl]-5′-phenyltetrahydro-3′H-spiro[piperidine-4,2′-pyrrolo[2,1-b][1,3]oxazol]-3′-one] |
| < 0.025 µM | COc1cc(N2CCC3(CC2)O[C@@H]2CC[C@@H](c4cc(F)cc(F)c4)N2C3=O)ncc1C#N [Example 4.43, 6-[(5′S,7a′R)-5′-(3,5-difluorophenyl)-3′-oxotetrahydro-1H,3′H-spiro[piperidine-4,2′-pyrrolo[2,1-b] [1,3]oxazol]-1-yl]-4-methoxypyridine-3-carbonitrile] |
| 0.493 µM | Cc1nccnc1C(=O)N1CCC2(CC1)O[C@@H]1CC[C@@H](c3cc(F)cc(F)c3)N1C2=O [Example 6.2, (5′S,7a′R)-5′-(3,5-difluorophenyl)-1-(3-methylpyrazine-2-carbonyl)tetrahydro-3′H-spiro[piperidine-4,2′-pyrrolo[2,1-b] [1,3]oxazol]-3′-one] |
| 0.0318 µM | CC1CC2(CCN1c1ccnc3c(F)cnn13)O[C@@H]1CC[C@@H](c3ccccc3)N1C2=O (stereo partly drawn) [Example 4.225, (4R,5′S,7a′R)-1-(3-fluoropyrazolo[1,5-a]pyrimidin-7-yl)-2-methyl-5′-phenyltetrahydro-3′H-spiro[piperidine-4,2′-pyrrolo[2,1-b] [1,3]oxazol]-3′-one] |
| < 0.025 µM | O=C(c1ccc(F)cc1F)N1CCC2(CC1)O[C@@H]1CC[C@@H](c3cccc(F)c3)N1C2=O [Example 6.114, (5′S,7a′R)-1-(2,4-difluorobenzene-1-carbonyl)-5′-(3-fluoro-phenyl)tetrahydro-3′H-spiro[piperidine-4,2′-pyrrolo[2,1-b] [1,3]oxazol]-3′-one] |
| < 0.025 µM | O=C(c1nc(Br)ccc1F)N1CCC2(CC1)O[C@@H]1CC[C@@H](c3cc(F)cc(F)c3)N1C2=O [Example 6.82] |
| 0.989 µM | CC(C)c1oncc1C(=O)N1CCC2(CC1)O[C@@H]1CC[C@@H](c3cc(F)cc(F)c3)N1C2=O [Example 6.49, (5′S,7a′R)-5′-(3,5-difluorophenyl)-1-[5-(propan-2-yl)-1,2-oxazole-4-carbonyl]-tetrahydro-3′H-spiro [piperidine-4,2′-pyrrolo[2,1-b][1,3]-oxazol]-3′-one] |
| 0.147 µM | O=C(c1ncccc1Cl)N1CCC2(CC1)O[C@@H]1CC[C@@H](c3cc(F)cc(F)c3)N1C2=O [Example 6.53, (5′S,7a′R)-1-(3-chloropyridine-2-carbonyl)-5′-(3,5-difluorophenyl)tetra-hydro-3′H-spiro [piperidine-4,2′-pyrrolo[2,1-b][1,3]-oxazol]-3′-one] |
| 0.093 µM | O=C1N2[C@@H](CC[C@H]2c2ccccc2)OC12CCN(c1ccc(-n3ccnc3)nn1)CC2 [Example 11.18, (5′S,7a′R)-1-[6-(1H-imidazol-1-yl)pyridazin-3-yl]-5′-phenyltetrahydro-3′H-spiro[piperidine-4,2′-pyrrolo[2,1-b][1,3]oxazol]-3′-one] |
| 0.182 µM | O=C(c1ccnc2ncnn12)N1CCC2(CC1)O[C@@H]1CC[C@@H](c3cc(F)cc(F)c3)N1C2=O [Example 6.76, (5′S,7a′R)-5′-(3,5-difluorophenyl)-1-([1,2,4]triazolo[1,5-a]pyrimidine-7-car-bonyl)tetrahydro-3′H-spiro[piperidine-4,2′-pyrrolo[2,1-b] [1,3]oxazol]-3′-one] |
| < 0.025 µM | N#Cc1cc(N2CCC3(CC2)O[C@@H]2CC[C@@H](c4cc(F)cc(F)c4)N2C3=O)ncn1 [Example 4.4, 6-[(5′S,7a′R)-5′-(3,5-difluorophenyl)-3′-oxotetrahydro-1H,3′H-spiro[piperidine-4,2′-pyrrolo[2,1-b] [1,3]oxazol]-1-yl]pyrimidine-4-carbonitrile] |
| < 0.025 µM | O=C(c1cccc(Cl)c1)N1CCC2(CC1)O[C@@H]1CC[C@@H](c3cc(F)cc(F)c3)N1C2=O [Example 6.9, (5′S,7a′R)-1-(3-chloro-benzene-1-carbonyl)-5′-(3,5-difluoro-phenyl)tetrahydro-3′H-spiro[piperidine-4,2′-pyrrolo[2,1-b] [1,3]oxazol]-3′-one] |
| < 0.025 µM | N#Cc1ccc(N2CCC3(CC2)O[C@@H]2CC[C@@H](c4ccccc4F)N2C3=O)n2ncnc12 [Example 4.249, 5-[(5′S,7a′R)-5′-(2-fluorophenyl)-3′-oxotetrahydro-1H,3′H-spiro[piperidine-4,2′-pyrrolo[2,1-b] [1,3]oxazol]-1-yl][1,2,4]triazolo[1,5-a] pyridine-8-carbonitrile] |
| 0.0726 µM | CS(=O)(=O)C1CN(C(=O)c2nc(N3CCC4(CC3)O[C@@H]3CC[C@@H](c5cc(F)cc(F)c5)N3C4=O)ncc2F)C1 [Example 7.9, (5′S,7a′R)-5′-(3,5-difluorophenyl)-1-{5-fluoro-4-[3-(methylsulfonyl)azetidine-1-carbonyl]pyrimidin-2-yl}tetrahydro-3′H-spiro[piperidine-4,2′-pyrrolo[2,1-b][1,3]oxazol]-3′-one] |
| 0.0565 µM | CC1CN(c2cc(C#N)ncn2)CCC12O[C@@H]1CC[C@@H](c3ccccc3)N1C2=O (stereo partly drawn) [Example 4.234, 6-[(4R,5′S,7a′R)-3-methyl-3′-oxo-5′-phenyltetrahydro-1H,3′H-spiro[piperidine-4,2′-pyrrolo[2,1-b] [1,3]oxazol]-1-yl]pyrimidine-4-carbonitrile] |
| 0.266 µM | O=C1N2[C@@H](CC[C@H]2c2ccccc2)OC12CCN(c1ncc(C3CC3)cn1)CC2 [Example 11.13, (5′S,7a′R)-1-(5-cyclopropylpyrimidin-2-yl)-5′-phenyltetrahydro-3′H-spiro[piperidine-4,2′-pyrrolo[2,1-b][1,3]oxazol]-3′-one] |
| < 0.025 µM | O=C1N2[C@@H](CC[C@H]2c2ccccc2)OC12CCN(c1cc(-c3ccsc3)ccn1)CC2 [Example 4.170, (5′S,7a′R)-5′-phenyl-1-[4-(thiophen-3-yl)pyridin-2-yl]tetrahydro-3′H-spiro[piperidine-4,2′-pyrrolo[2,1-b] [1,3]oxazol]-3′-one] |
| 0.0637 µM | O=C1N2[C@@H](CC[C@H]2c2cc(F)cc(F)c2)OC12CN(c1cccc3ncnn13)C2 [Example 4.135, (5′S,7a′R)-5′-(3,5-difluorophenyl)-1-([1,2,4]triazolo[1,5-a]pyridin-5-yl)tetrahydro-3′H-spiro[azetidine-3,2′-pyrrolo[2,1-b] [1,3]oxazol]-3′-one] |
| 0.212 µM | N#Cc1ccc(C(=O)N2CCC3(CC2)O[C@@H]2CC[C@@H](c4cc(F)cc(F)c4)N2C3=O)c(F)c1 [Example 5.20, 4-((5′S,7a′R)-5′-(3,5-difluorophenyl)-3′-oxo-tetrahydro-3′H-spiro [piperidine-4,2′-pyrrolo-[2,1-b]oxazole]-1-carbon-yl)-3-fluorobenzonitrile] |
| < 0.025 µM | Cc1nc(N2CCC3(CC2)O[C@@H]2CC[C@@H](c4cccc(F)c4)N2C3=O)ccc1C#N [Example 4.77, 6-[(5′S,7a′R)-5′-(3-fluorophenyl)-3′-oxotetrahydro-1H,3′H-spiro[piperidine-4,2′-pyrrolo[2,1-b] [1,3]oxazol]-1-yl]-2-methylpyridine-3-carbonitrile] |
| 0.0331 µM | O=C(c1cscn1)N1CCC2(CC1)O[C@@H]1CC[C@@H](c3cc(F)cc(F)c3)N1C2=O [Example 5.44] |
| < 0.025 µM | N#Cc1ccc(N2CCC3(CC2)O[C@@H]2CC[C@@H](c4ccccc4)N2C3=O)n2ncc(Cl)c12 [Example 4.182, 3-chloro-7-[(5′S,7a′R)-3′-oxo-5′-phenyltetrahydro-1H,3′H-spiro[piperidine-4,2′-pyrrolo[2,1-b] [1,3]oxazol]-1-yl]pyrazolo[1,5-a] pyridine-4-carbonitrile] |
| < 0.025 µM | N#Cc1ccc(F)c([C@@H]2CC[C@H]3OC4(CCN(c5ccnc6c(F)cnn56)CC4)C(=O)N32)c1 [Example 20.4, 4-fluoro-3-[(5′S,7a′R)-1-(3-fluoropyrazolo[1,5-a]pyrimidin-7-yl)-3′-oxotetrahydro-3′H-spiro[piperidine-4,2′-pyrrolo[2,1-b][1,3]oxazol]-5′-yl]benzonitrile] |
| 0.0305 µM | N#Cc1cnc(N2CCC3(CC2)O[C@@H]2CC[C@@H](c4ccccc4F)N2C3=O)nc1 [Example 4.106, 2-((5′S,7a′R)-5′-(2-fluorophenyl)-3′-oxotetrahydro-3′H-spiro[piperidine-4,2′-pyrrolo[2,1-b]oxazol]-1-yl)pyrimidine-5-carbonitrile] |
| 0.17 µM | C#Cc1ccc(C(=O)N2CCC3(CC2)O[C@@H]2CC[C@@H](c4cc(F)cc(F)c4)N2C3=O)cc1 [Example 5.27, (5′S,7a′R)-5′-(3,5-difluoro-phenyl)-1-(4-ethynyl-benzoyl)tetrahydro-3′H-spiro[piperidine-4,2′-pyrrolo[2,1-b]oxazol]-3′-one] |
| 0.0316 µM | O=C(c1cccc(N2CCCC2)n1)N1CCC2(CC1)O[C@@H]1CC[C@@H](c3cc(F)cc(F)c3)N1C2=O [Example 6.96, (5′S,7a′R)-5′-(3,5-difluorophenyl)-1-[6-(pyrrolidin-1-yl)pyri-dine-2-carbonyl]tetra-hydro-3′H-spiro[piperi-dine-4,2′-pyrrolo[2,1-b][1,3]oxazol]-3′-one] |
